From paper PMC7582770, “Synthesis of “All-Cis” Trihydroxypiperidines from a Carbohydrate-Derived Ketone: Hints for the Design of New β-Gal and GCase Inhibitors” (Molecules, 2020)

Legend:
Test in all cases: Commercial glycosidase screening
[1] = tested on: β-N-acetylglucosaminidase EC 3.2.1.52; format: biochemical, Jack beans; details: 0.1 mM inhibitor
Description: (§1) A panel of 12 commercial glycosidases (α-L-fucosidase EC 3.2.1.51 from Homo sapiens, α-galactosidase EC 3.2.1.22 from coffee beans, β-galactosidases EC 3.2.1.23 from Escherichia coli and Aspergillus oryzae, α-glucosidases EC 3.2.1.20 from yeast and rice, amyloglucosidase EC 3.2.1.3 from Aspergillus niger, β-glucosidase EC 3.2.1.21 from almonds, α-mannosidase EC 3.2.1.24 from Jack beans, β-mannosidase EC 3.2.1.25 from snail, β-N-acetylglucosaminidases EC 3.2.1.52 from Jack beans and bovine kidney) purchased from Sigma-Aldrich (St. Louis, MO, USA) or Megazyme Ltd. (Bray, Co. Wicklow, Ireland) was screened.
(§2) The percentage (%) of inhibition towards the corresponding glycosidase was determined in quadruplicate in the presence of 100 μM of the inhibitor on the well. Each enzymatic assay (final volume 0.12 mL) contains 0.01–0.5 units/mL of the enzyme (with previous calibration) and 4.2 mM aqueous solution of the appropriate p-nitrophenyl glycopyranoside (substrate) buffered to the optimal pH of the enzyme. Enzyme and inhibitor were preincubated for 5 min at room temperature, and the reaction started by addition of the substrate. After 20 min of incubation at 37 °C, the reaction was stopped by the addition of 0.1 mL of sodium borate solution (pH 9.8). The p-nitrophenolate formed was measured by visible absorption spectroscopy at 405 nm (Asys Expert 96 spectrophotometer, Biochrom Ltd., Cambridge, England). Under these conditions, the p-nitrophenolate released led to optical densities linear with both reaction time and concentration of the enzyme (for more details, see the Supplementary Materials). The IC50 value (concentration of inhibitor required for 50% inhibition of enzyme activity) was determined from plots of % inhibition vs. different inhibitor concentrations. Each point of the graph is the average of four measures. The standard deviation for each point has been also represented in the graph.

[2] = tested on: α-glucosidase EC 3.2.1.20; format: biochemical, yeast; details: 0.1 mM inhibitor
Description: as §1, §2

[3] = molecular target: T1, β-galactosidase EC 3.2.1.23 (Aspergillus oryzae, UniProt Q2UCU3); format: biochemical; details: 0.1 mM inhibitor
T1 construct: purchased Sigma-Aldrich or Megazyme Ltd
T1 sequence (Q2UCU3 19-1005): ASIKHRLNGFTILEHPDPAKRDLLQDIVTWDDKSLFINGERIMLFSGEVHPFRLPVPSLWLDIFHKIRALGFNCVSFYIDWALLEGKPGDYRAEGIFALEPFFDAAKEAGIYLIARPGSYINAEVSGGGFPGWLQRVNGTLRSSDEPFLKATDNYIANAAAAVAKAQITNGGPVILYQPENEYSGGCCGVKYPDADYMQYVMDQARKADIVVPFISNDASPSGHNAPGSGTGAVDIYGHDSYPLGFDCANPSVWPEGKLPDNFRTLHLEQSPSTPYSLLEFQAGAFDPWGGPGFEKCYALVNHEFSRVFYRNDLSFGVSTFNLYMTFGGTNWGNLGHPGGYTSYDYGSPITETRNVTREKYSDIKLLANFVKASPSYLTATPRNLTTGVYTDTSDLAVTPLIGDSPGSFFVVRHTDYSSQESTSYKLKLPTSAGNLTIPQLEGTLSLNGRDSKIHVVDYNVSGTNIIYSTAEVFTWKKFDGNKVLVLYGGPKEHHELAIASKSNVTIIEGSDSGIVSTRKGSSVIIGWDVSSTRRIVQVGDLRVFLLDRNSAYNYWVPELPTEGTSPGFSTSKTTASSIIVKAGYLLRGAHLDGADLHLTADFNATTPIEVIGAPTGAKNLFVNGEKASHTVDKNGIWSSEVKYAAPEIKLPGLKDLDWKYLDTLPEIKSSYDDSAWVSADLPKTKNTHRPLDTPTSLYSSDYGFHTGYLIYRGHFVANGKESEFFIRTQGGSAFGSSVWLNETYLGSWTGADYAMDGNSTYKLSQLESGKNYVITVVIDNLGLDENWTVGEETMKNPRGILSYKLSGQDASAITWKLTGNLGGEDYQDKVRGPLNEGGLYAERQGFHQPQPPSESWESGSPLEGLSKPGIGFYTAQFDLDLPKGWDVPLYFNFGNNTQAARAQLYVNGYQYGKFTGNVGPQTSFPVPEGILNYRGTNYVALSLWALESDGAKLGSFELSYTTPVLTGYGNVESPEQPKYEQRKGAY
Description: as §1, §2

[4] = molecular target: T2, β-galactosidase EC 3.2.1.23 (Escherichia coli, UniProt P00722); format: biochemical; details: read-out: % Inhibition at 0.1 mM, β-galactosidase Escherichia coli
T2 construct: purchased Sigma-Aldrich or Megazyme Ltd
T2 sequence (P00722 2-1024): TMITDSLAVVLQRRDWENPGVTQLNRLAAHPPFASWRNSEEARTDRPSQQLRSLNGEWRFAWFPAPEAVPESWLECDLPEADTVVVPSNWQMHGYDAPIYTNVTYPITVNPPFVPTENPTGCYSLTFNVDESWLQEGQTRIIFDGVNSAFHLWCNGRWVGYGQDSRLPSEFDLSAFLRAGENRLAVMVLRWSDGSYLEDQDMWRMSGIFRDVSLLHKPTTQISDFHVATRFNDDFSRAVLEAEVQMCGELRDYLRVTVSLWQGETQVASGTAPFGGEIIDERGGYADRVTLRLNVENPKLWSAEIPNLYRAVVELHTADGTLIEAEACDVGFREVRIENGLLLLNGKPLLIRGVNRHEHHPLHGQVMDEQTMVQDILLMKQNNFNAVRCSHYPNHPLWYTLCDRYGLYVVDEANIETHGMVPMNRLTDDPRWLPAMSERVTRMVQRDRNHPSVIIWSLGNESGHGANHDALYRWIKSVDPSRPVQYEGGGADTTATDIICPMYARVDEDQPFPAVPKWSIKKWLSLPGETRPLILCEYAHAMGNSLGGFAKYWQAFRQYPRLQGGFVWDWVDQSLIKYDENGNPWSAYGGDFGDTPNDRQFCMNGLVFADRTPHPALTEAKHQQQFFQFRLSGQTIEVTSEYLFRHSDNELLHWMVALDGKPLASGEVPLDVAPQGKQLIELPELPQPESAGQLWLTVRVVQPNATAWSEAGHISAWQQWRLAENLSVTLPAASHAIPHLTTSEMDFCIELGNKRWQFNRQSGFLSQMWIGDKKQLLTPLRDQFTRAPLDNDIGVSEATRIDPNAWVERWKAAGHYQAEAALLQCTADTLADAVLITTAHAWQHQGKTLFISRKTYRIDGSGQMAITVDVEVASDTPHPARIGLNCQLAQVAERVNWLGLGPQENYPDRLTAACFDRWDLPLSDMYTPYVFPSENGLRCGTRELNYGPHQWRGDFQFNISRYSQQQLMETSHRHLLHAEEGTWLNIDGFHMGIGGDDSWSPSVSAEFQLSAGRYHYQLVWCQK
Description: as §1, §2

[5] = molecular target: T3, α-L-fucosidase EC 3.2.1.51 (Homo sapiens, UniProt P04066); format: biochemical; details: 0.1 mM inhibitor
T3 construct: purchased Sigma-Aldrich or Megazyme Ltd
T3 sequence (P04066 32-466): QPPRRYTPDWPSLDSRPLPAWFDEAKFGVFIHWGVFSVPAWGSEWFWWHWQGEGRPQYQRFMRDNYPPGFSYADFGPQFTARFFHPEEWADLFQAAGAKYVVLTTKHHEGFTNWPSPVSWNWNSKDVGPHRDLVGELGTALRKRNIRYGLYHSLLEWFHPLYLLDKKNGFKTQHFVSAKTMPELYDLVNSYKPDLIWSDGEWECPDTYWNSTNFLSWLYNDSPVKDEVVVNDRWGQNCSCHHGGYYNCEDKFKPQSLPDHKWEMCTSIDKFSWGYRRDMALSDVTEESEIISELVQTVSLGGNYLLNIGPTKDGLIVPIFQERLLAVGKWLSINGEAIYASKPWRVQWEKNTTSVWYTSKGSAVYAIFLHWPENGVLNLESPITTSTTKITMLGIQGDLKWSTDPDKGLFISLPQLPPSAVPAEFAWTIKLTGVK
Description: as §1, §2

[6] = molecular target: T4, α-galactosidase EC 3.2.1.22 (Coffea arabica, UniProt Q42656); format: biochemical; details: 0.1 mM inhibitor; read-out: % Inhibition at 0.1 mM, α-galactosidase coffee beans
T4 construct: purchased Sigma-Aldrich or Megazyme Ltd
T4 sequence (Q42656 16-378): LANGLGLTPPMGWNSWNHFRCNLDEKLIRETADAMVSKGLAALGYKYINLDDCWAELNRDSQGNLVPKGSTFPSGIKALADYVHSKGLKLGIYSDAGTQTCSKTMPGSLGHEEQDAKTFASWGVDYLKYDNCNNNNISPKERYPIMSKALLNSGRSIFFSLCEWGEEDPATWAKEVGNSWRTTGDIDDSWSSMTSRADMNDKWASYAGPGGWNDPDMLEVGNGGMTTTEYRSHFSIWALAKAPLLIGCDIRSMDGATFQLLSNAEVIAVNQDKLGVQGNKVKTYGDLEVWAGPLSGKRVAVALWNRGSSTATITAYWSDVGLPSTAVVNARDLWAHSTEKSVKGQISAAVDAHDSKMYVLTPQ
Description: as §1, §2

[7] = molecular target: T5, α-mannosidase EC 3.2.1.24 (Canavalia ensiformis, UniProt C0HJB3); format: biochemical; details: 0.1 mM inhibitor; read-out: % Inhibition at 0.1 mM, α-mannosidase Jack beans
T5 construct: purchased Sigma-Aldrich or Megazyme Ltd
T5 sequence (C0HJB3 1-981): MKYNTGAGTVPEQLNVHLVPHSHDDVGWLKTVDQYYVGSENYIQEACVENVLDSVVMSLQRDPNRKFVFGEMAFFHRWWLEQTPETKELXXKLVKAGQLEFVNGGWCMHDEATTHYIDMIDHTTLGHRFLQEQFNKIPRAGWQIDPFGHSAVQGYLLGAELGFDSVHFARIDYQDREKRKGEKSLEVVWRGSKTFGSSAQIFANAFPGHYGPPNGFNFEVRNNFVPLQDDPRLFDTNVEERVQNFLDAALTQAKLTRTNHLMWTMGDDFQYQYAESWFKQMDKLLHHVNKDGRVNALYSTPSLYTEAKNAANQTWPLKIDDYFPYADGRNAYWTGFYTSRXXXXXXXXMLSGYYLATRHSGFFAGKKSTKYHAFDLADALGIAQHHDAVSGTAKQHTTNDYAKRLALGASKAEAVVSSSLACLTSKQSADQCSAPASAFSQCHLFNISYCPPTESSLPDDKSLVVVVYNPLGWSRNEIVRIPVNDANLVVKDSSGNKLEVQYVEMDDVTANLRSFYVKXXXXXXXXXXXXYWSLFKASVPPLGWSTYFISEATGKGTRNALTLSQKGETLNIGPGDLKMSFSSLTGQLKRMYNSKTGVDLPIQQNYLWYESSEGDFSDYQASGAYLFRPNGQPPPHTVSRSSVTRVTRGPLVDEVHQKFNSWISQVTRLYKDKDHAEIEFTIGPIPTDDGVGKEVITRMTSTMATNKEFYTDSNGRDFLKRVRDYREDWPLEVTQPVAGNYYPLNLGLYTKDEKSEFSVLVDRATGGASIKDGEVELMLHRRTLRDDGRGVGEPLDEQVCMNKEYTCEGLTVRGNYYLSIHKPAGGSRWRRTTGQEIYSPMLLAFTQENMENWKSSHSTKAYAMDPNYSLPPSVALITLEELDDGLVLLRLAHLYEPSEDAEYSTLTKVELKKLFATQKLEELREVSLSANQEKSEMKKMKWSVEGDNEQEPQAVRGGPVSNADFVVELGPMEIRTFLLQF
Description: as §1, §2

[8] = molecular target: T6, amyloglucosidase EC 3.2.1.3 (Aspergillus niger, UniProt P69328); format: biochemical; details: 0.1 mM inhibitor
T6 construct: purchased Sigma-Aldrich or Megazyme Ltd
T6 sequence (P69328 25-640): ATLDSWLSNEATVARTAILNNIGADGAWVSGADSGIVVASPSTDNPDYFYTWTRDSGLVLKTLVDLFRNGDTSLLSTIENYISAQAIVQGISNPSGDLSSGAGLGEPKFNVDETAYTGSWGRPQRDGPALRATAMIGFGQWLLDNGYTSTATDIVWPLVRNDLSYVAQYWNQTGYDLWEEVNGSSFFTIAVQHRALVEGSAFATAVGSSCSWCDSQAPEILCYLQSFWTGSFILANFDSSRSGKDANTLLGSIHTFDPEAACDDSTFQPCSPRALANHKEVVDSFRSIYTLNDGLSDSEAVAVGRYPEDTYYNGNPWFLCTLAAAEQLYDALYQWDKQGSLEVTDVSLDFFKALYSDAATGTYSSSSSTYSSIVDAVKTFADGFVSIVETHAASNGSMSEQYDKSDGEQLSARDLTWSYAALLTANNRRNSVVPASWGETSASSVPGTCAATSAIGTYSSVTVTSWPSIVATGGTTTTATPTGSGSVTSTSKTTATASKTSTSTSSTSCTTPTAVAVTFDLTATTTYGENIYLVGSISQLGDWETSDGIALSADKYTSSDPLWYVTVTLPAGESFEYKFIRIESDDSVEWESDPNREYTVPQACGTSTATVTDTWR
Description: as §1, §2

[9] = tested on: β-N-acetylglucosaminidase EC 3.2.1.52; format: biochemical, bovine kidney; details: 0.1 mM inhibitor
Description: as §1, §2

Row | Structure (SMILES) | % Inhibition at 0.1 mM, β-N-acetylglucosaminidase Jack beans [1] | % Inhibition at 0.1 mM, α-glucosidase yeast [2] | inhibition at 100 µM [3] [%] | inhibition at 100 µM [4] [%] | inhibition at 100 µM [5] [%] | inhibition at 100 µM [6] [%] | inhibition at 100 µM [7] [%] | inhibition at 100 µM [8] [%] | % Inhibition at 0.1 mM, β-N-acetylglucosaminidase bovine kidney [9]
1 | CCCCCCCCCCCCN[C@H]1CNC[C@@H](O)[C@H]1O [compound 10, (3R, 4S, 5S)-3,4-Dihydroxy-5-(Dodecylamino) Piperidine] | - (no inhibition detected) | - (no inhibition detected) | 0 | 0 | 0 | 0 | 0 | 0 | - (no inhibition detected)
2 | CCCCCCCC[C@]1(O)CNC[C@@H](O)[C@H]1O [compound 12, (3S, 4R, 5R)-3,4,5-Trihydroxy-3-Octyl-Piperidine] | - (no inhibition detected) | - (no inhibition detected) | 0 | 0 | 0 | 0 | 0 | 0 | - (no inhibition detected)
3 | CCCCCCCCCO[C@@H]1CNC[C@@H](O)[C@H]1O [compound 21, (3R, 4R, 5R)-4,5-Dihydroxy-3-(Nonyloxy) Piperidine] | - (no inhibition detected) | - (no inhibition detected) | 0 | 0 | 0 | 0 | 0 | 0 | - (no inhibition detected)
